The values below are quoted from earlier work in patent US20110230399A1, “Methods for Treating Obesity Related Disease” (priority 2008, published 2011).

For data set [1] the following is noted: in vivo.
In another data set the test system is hypothalamic slices. The conditions noted are these: in vitro.

Turning to “NPY13-36: Neuropeptide Y fragment 13-36; full agonist at the Y2 receptor”, in data set [1], the “stimulation of food intake” value is on record as “does not stimulate food intake”. In addition, the “NPY release from hypothalamic slices” value in the data set on hypothalamic slices is reported as “inhibits NPY release”.
